Test results: ChEMBL document CHEMBL4138105, “LL-37-derived short antimicrobial peptide KR-12-a5 and its d-amino acid substituted analogs with cell selectivity, anti-biofilm activity, synergistic effect with conventional antibiotics, and anti-inflammatory activity” (Eur J Med Chem, 2017)
The source made the active and inactive calls.

Columns and labels:
Salmonella typhimurium = assay: Antibacterial activity against Salmonella typhimurium KCTC 11926 after 24 hrs; format: functional, Salmonella enterica subsp. enterica serovar Typhimurium; conditions: Salmonella enterica, KCTC 11926, 24 h
RAW264.7 [1] = assay: Anti-inflammatory activity in mouse RAW264.7 cells assessed as reduction in LPS-induced TNF-alpha mRNA expression at 10 uM after 3 hrs by RT-PCR analysis; format: functional, cell-based
Staphylococcus aureus [2] = assay: Potency index, ratio of melittin MIC to compound MIC for methicillin resistant Staphylococcus aureus CCARM 3089; format: functional
Pseudomonas aeruginosa [3] = assay: Synergistic antibacterial activity against multidrug-resistant Pseudomonas aeruginosa CCARM 2095 after 72 hrs in presence of chloramphenicol by chequerboard assay; format: functional
Staphylococcus aureus [4] = assay: Antibacterial activity against Staphylococcus aureus KCTC 1621 in presence of 4.5 mM KCl after 24 hrs; format: functional; conditions: KCTC 1621, 24 h
Pseudomonas aeruginosa [5] = assay: Potency index, ratio of LL-37 MBIC90 to compound MBIC90 for antibiofilm activity against multidrug-resistant Pseudomonas aeruginosa CCARM 2095; format: functional
Pseudomonas aeruginosa [6] = assay: Potency index, ratio of melittin MIC to compound MIC for multidrug-resistant Pseudomonas aeruginosa CCARM 2095; format: functional
Staphylococcus aureus [7] = assay: Antibacterial activity against methicillin resistant Staphylococcus aureus CCARM 3090 after 24 hrs; format: functional; conditions: CCARM 3090, 24 h
Staphylococcus aureus [8] = assay: Antibacterial activity against Staphylococcus aureus KCTC 1621 assessed as cell membrane disruption at 2 times MIC within 4 mins by Sytox Green dye based fluorescence spectrophotometer assay; format: functional, organism-based
RAW264.7 [9] = assay: Anti-inflammatory activity in mouse RAW264.7 cells assessed as reduction in LPS-induced TNF-alpha production at 10 to 20 uM preincubated for 1 hr followed by LPS stimulation measured after 6 hrs by ELISA; format: functional, cell-based
Enterococcus faecium [10] = assay: Antibacterial activity against Vancomycin-resistant Enterococcus faecium ATCC 51559 after 24 hrs; format: functional; conditions: ATCC 51559, 24 h
Escherichia coli [11] = assay: Antibacterial activity against Escherichia coli KCTC 1682 after 24 hrs; format: functional; conditions: KCTC 1682, 24 h
Escherichia coli [12] = assay: Antibacterial activity against Escherichia coli KCTC 1682 in presence of 20% human serum after 24 hrs; format: functional; conditions: KCTC 1682, 24 h
RAW264.7 [13] = assay: Anti-inflammatory activity in mouse RAW264.7 cells assessed as reduction in LPS-induced MCP-1 mRNA expression at 10 uM after 3 hrs by RT-PCR analysis; format: functional, cell-based
Staphylococcus aureus [14] = assay: Antibacterial activity against Staphylococcus aureus KCTC 1621 in presence of 150 mM NaCl after 24 hrs; format: functional; conditions: KCTC 1621, 24 h
Staphylococcus aureus [15] = assay: Ratio of MIC for Staphylococcus aureus KCTC 1621 in presence of 20% human serum to MIC for Escherichia coli KCTC 1682 in presence of 20% human serum; format: functional
Escherichia coli [16] = assay: Antibacterial activity against Escherichia coli KCTC 1682 in presence of 2.5 mM CaCl2 after 24 hrs; format: functional; conditions: KCTC 1682, 24 h
RAW264.7 [17] = assay: Anti-inflammatory activity in mouse RAW264.7 cells assessed as reduction in LPS-induced iNOS mRNA expression at 5 uM after 6 hrs by RT-PCR analysis; format: functional, cell-based
Staphylococcus aureus [18] = assay: Potency index, ratio of LL-37 MIC to compound MIC for methicillin resistant Staphylococcus aureus CCARM 3090; format: functional
Staphylococcus aureus [19] = assay: Potency index, ratio of LL-37 MIC to compound MIC for methicillin resistant Staphylococcus aureus CCARM 3089; format: functional
[20] = tested on: Staphylococcus epidermidis; assay: Antibacterial activity against Staphylococcus epidermidis KCTC 1917 after 24 hrs; format: functional; conditions: KCTC 1917, 24 h
Escherichia coli [21] = assay: Antibacterial activity against Escherichia coli KCTC 1682 in presence of 4.5 mM KCl after 24 hrs; format: functional; conditions: KCTC 1682, 24 h
Staphylococcus aureus [22] = assay: Antibacterial activity against Staphylococcus aureus KCTC 1621 assessed as cytoplasmic membrane depolarization at 2 times MIC by disC3-5 dye based fluorescence assay; format: functional, organism-based
RAW264.7 [23] = assay: Anti-inflammatory activity in mouse RAW264.7 cells assessed as reduction in LPS-induced IL-6 mRNA expression at 10 uM after 3 hrs by RT-PCR analysis; format: functional, cell-based
Staphylococcus aureus [24] = assay: Antibacterial activity against Staphylococcus aureus KCTC 1621 in presence of 1 mM MgCl2 after 24 hrs; format: functional; conditions: KCTC 1621, 24 h
RAW264.7 [25] = assay: Cytotoxicity against mouse RAW264.7 cells up to 128 uM after 48 hrs by MTT assay; format: cell-based; conditions: raw264.7, 48 h
Staphylococcus aureus [26] = assay: Antibacterial activity against Staphylococcus aureus KCTC 1621 in presence of 2.5 mM CaCl2 after 24 hrs; format: functional; conditions: KCTC 1621, 24 h
Staphylococcus aureus [27] = assay: Antibacterial activity against methicillin resistant Staphylococcus aureus CCARM 3089 after 24 hrs; format: functional; conditions: CCARM 3089, 24 h
Pseudomonas aeruginosa [28] = assay: Synergistic antibacterial activity against multidrug-resistant Pseudomonas aeruginosa CCARM 2095 after 72 hrs in presence of oxacillin by chequerboard assay; format: functional
RAW264.7 [29] = assay: Anti-inflammatory activity in mouse RAW264.7 cells assessed as reduction in LPS-induced IL-6 production at 10 to 20 uM preincubated for 1 hr followed by LPS stimulation measured after 6 hrs by ELISA; format: functional, cell-based
Staphylococcus aureus [30] = assay: Potency index, ratio of melittin MIC to compound MIC for methicillin resistant Staphylococcus aureus CCARM 3090; format: functional
Enterococcus faecium [31] = assay: Potency index, ratio of melittin MIC to compound MIC for Vancomycin-resistant Enterococcus faecium ATCC 51559; format: functional
[32] = Binding affinity to EYPC/cholesterol small unilamellar vesicles assessed as intrinsic tryptophan acrylamide quenching constant by fluorescence assay (reference value: 5.95 to 7.56 /M)
Pseudomonas aeruginosa [33] = assay: Antibacterial activity against multidrug-resistant Pseudomonas aeruginosa CCARM 2095 after 24 hrs; format: functional; conditions: CCARM 2095, 24 h
Staphylococcus aureus [34] = assay: Antibacterial activity against Staphylococcus aureus KCTC 1621 after 24 hrs; format: functional; conditions: KCTC 1621, 24 h
Pseudomonas aeruginosa [35] = assay: Potency index, ratio of LL-37 MIC to compound MIC for multidrug-resistant Pseudomonas aeruginosa CCARM 2109; format: functional
Pseudomonas aeruginosa [36] = assay: Potency index, ratio of melittin MIC to compound MIC for multidrug-resistant Pseudomonas aeruginosa CCARM 2109; format: functional
Escherichia coli [37] = assay: Antibacterial activity against Escherichia coli KCTC 1682 in presence of 6 uM NH4Cl after 24 hrs; format: functional; conditions: KCTC 1682, 24 h
Staphylococcus aureus [38] = assay: Antibacterial activity against methicillin resistant Staphylococcus aureus CCARM 3095 after 24 hrs; format: functional; conditions: CCARM 3095, 24 h
[39] = Therapeutic index, ratio of MHC10 for human RBC to MIC for Escherichia coli KCTC 1682; format: toxicity; conditions: red blood cells (RBC), pooled result: one value given for 6 cell lines, strains, targets or settings, read-out: TI
Pseudomonas aeruginosa [40] = assay: Potency index, ratio of LL-37 MIC to compound MIC for multidrug-resistant Pseudomonas aeruginosa CCARM 2095; format: functional
Staphylococcus aureus [41] = assay: Potency index, ratio of melittin MIC to compound MIC for methicillin resistant Staphylococcus aureus CCARM 3095; format: functional
Pseudomonas aeruginosa [42] = assay: Synergistic antibacterial activity against multidrug-resistant Pseudomonas aeruginosa CCARM 2095 after 72 hrs in presence of ciprofloxacin by chequerboard assay; format: functional
Pseudomonas aeruginosa [43] = assay: Antibiofilm activity against multidrug-resistant Pseudomonas aeruginosa CCARM 2095 after 24 hrs by crystal violet staining based assay; format: functional

CC[C@H](C)[C@H](NC(=O)[C@H](CC(C)C)NC(=O)[C@H](CCCCN)NC(=O)[C@@H](NC(=O)[C@@H](NC(=O)[C@H](CCCNC(=N)N)NC(=O)[C@@H](N)CCCCN)[C@@H](C)CC)C(C)C)C(=O)N[C@@H](CC(C)C)C(=O)N[C@@H](CCCCN)C(=O)N[C@@H](Cc1c[nH]c2ccccc12)C(=O)N[C@@H](CC(C)C)C(=O)N[C@@H](CCCNC(=N)N)C(N)=O
0.3125: fractional inhibitory concentration index (FICI) (Pseudomonas aeruginosa [42])
0.25: fractional inhibitory concentration index (FICI) (Pseudomonas aeruginosa [3])
2 - 4: Ratio (Staphylococcus aureus [2]) | Ratio (Pseudomonas aeruginosa [6]) | Ratio (Staphylococcus aureus [18]) | Ratio (Staphylococcus aureus [19]) | Ratio (Staphylococcus aureus [30]) | Ratio (Enterococcus faecium [31]) | Ratio (Pseudomonas aeruginosa [35]) | Ratio (Pseudomonas aeruginosa [36]) | Ratio (Pseudomonas aeruginosa [40]) | Ratio (Staphylococcus aureus [41])
8 µM: MIC (Staphylococcus aureus [7]) | MIC (Escherichia coli [11]) | MIC (Escherichia coli [12]) | MIC (Escherichia coli [16]) | MIC (Escherichia coli [21]) | MIC (Staphylococcus aureus [24]) | MIC (Escherichia coli [37])
1.66 M⁻¹: KSV [32]
active: Activity (RAW264.7 [1]) | Activity (Staphylococcus aureus [8]) | Activity (RAW264.7 [9]) | Activity (RAW264.7 [13]) | Activity (RAW264.7 [17]) | Activity (Staphylococcus aureus [22]) | Activity (RAW264.7 [23]) | Activity (RAW264.7 [29])
2 µM: MIC (Salmonella typhimurium) | MIC (Staphylococcus aureus [4]) | MIC (Staphylococcus aureus [14]) | MIC (Staphylococcus aureus [26])
16 µM: MIC (Pseudomonas aeruginosa [33]) | MBIC90 (Pseudomonas aeruginosa [43])
0.375: fractional inhibitory concentration index (FICI) (Pseudomonas aeruginosa [28])
4 - 8: fold change (FC) (Pseudomonas aeruginosa [5])
4 µM: MIC (Enterococcus faecium [10]) | MIC [20] | MIC (Staphylococcus aureus [27]) | MIC (Staphylococcus aureus [34]) | MIC (Staphylococcus aureus [38])
2 - 8: Ratio (Staphylococcus aureus [15])
4.4: selectivity ratio [39]
Non-Toxic: Activity (RAW264.7 [25])

CC[C@H](C)[C@H](NC(=O)[C@H](CC(C)C)NC(=O)[C@@H](CCCCN)NC(=O)[C@@H](NC(=O)[C@@H](NC(=O)[C@H](CCCNC(=N)N)NC(=O)[C@@H](N)CCCCN)[C@@H](C)CC)C(C)C)C(=O)N[C@@H](CC(C)C)C(=O)N[C@@H](CCCCN)C(=O)N[C@@H](Cc1c[nH]c2ccccc12)C(=O)N[C@@H](CC(C)C)C(=O)N[C@@H](CCCNC(=N)N)C(N)=O
4 - 8: fold change (FC) (Pseudomonas aeruginosa [5])
8 µM: MIC (Escherichia coli [16]) | MIC (Staphylococcus aureus [24]) | MIC (Pseudomonas aeruginosa [33]) | MBIC90 (Pseudomonas aeruginosa [43])
active: Activity (RAW264.7 [1]) | Activity (Staphylococcus aureus [8]) | Activity (RAW264.7 [9]) | Activity (RAW264.7 [13]) | Activity (RAW264.7 [17]) | Activity (Staphylococcus aureus [22]) | Activity (RAW264.7 [23]) | Activity (RAW264.7 [29])
0.5: fractional inhibitory concentration index (FICI) (Pseudomonas aeruginosa [42])
2 - 4: Ratio (Staphylococcus aureus [2]) | Ratio (Pseudomonas aeruginosa [6]) | Ratio (Staphylococcus aureus [18]) | Ratio (Staphylococcus aureus [19]) | Ratio (Staphylococcus aureus [30]) | Ratio (Enterococcus faecium [31]) | Ratio (Pseudomonas aeruginosa [35]) | Ratio (Pseudomonas aeruginosa [36]) | Ratio (Pseudomonas aeruginosa [40]) | Ratio (Staphylococcus aureus [41])
2 - 8: Ratio (Staphylococcus aureus [15])
2.21 M⁻¹: KSV [32]
16.8: selectivity ratio [39]
2 µM: MIC (Salmonella typhimurium) | MIC (Staphylococcus aureus [4]) | MIC (Staphylococcus aureus [14]) | MIC (Staphylococcus aureus [34])
0.375: fractional inhibitory concentration index (FICI) (Pseudomonas aeruginosa [3]) | fractional inhibitory concentration index (FICI) (Pseudomonas aeruginosa [28])
Non-Toxic: Activity (RAW264.7 [25])
4 µM: MIC (Staphylococcus aureus [7]) | MIC (Enterococcus faecium [10]) | MIC (Escherichia coli [11]) | MIC (Escherichia coli [12]) | MIC [20] | MIC (Escherichia coli [21]) | MIC (Staphylococcus aureus [26]) | MIC (Staphylococcus aureus [27]) | MIC (Escherichia coli [37]) | MIC (Staphylococcus aureus [38])
